Source: PubChem BioAssay (NCI)
Values joined by “and” are separate entries in the source; they are usually repeats but may differ in a detail not shown here. Equal values may be shown once.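 Results reflect a 48-hour exposure of cells in 96-well plates to compound at five concentrations. GI50: concentration for 50% inhibition of growth. At the TGI there is no net growth.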

What was measured:
Test in all cases: NCI-60 cell line screen, 48 h
SF-295 CNS = test system: SF-295 CNS
DU-145 prostate = test system: DU-145 prostate
NCI-H23 lung = test system: NCI-H23 lung
UACC-257 melanoma = test system: UACC-257 melanoma
TK-10 renal = test system: TK-10 renal
MOLT-4 leukemia = test system: MOLT-4 leukemia
BT-549 breast = test system: BT-549 breast
SW-620 colon = test system: SW-620 colon
SK-MEL-28 melanoma = test system: SK-MEL-28 melanoma
CCRF-CEM leukemia = test system: CCRF-CEM leukemia

## CCc1nc(Cl)nc(Cl)c1Cl
SF-295 CNS
  TGI: 23.1 µM
DU-145 prostate
  TGI: 23.1 µM
NCI-H23 lung
  TGI: 5.9 µM
UACC-257 melanoma
  TGI: 1.87 µM
TK-10 renal
  TGI: 21.2 µM
MOLT-4 leukemia
  TGI: 1.68 µM
BT-549 breast
  TGI: 14.6 µM
SW-620 colon
  TGI: 5.17 µM
SK-MEL-28 melanoma
  TGI: 17.7 µM
CCRF-CEM leukemia
  TGI: 0.771 µM

## Cc1c(NC(=O)OC[C@@H]2COCCN2)cn2ncnc(Nc3ccc4c(cnn4Cc4cccc(F)c4)c3)c12
SF-295 CNS
  GI50: 9.08 µM and 5.67 µM
  TGI: > 10 µM and 20.6 µM
DU-145 prostate
  GI50: 9.5 µM and 4.26 µM
  TGI: > 10 µM and 20.6 µM
NCI-H23 lung
  GI50: > 10 µM and 11.9 µM
  TGI: > 10 µM and 26.4 µM
UACC-257 melanoma
  GI50: > 10 µM and 5.34 µM
  TGI: > 10 µM and 18.2 µM
TK-10 renal
  GI50: 0.546 µM and 0.415 µM
  TGI: > 10 µM and 15.7 µM
MOLT-4 leukemia
  GI50: 7.63 µM and 7.76 µM
  TGI: > 10 µM and 24.1 µM
BT-549 breast
  GI50: > 10 µM and 8.52 µM
  TGI: > 10 µM and 22.7 µM
SW-620 colon
  GI50: > 10 µM and 10.5 µM
  TGI: > 10 µM and 24.6 µM
SK-MEL-28 melanoma
  GI50: > 10 µM and 7.04 µM
  TGI: > 10 µM and 21.4 µM
CCRF-CEM leukemia
  GI50: > 10 µM and 11 µM
  TGI: > 10 µM and 34.3 µM

## O=C(c1ccccc1)c1nc2ccc(C(F)(F)F)cc2[n+]([O-])c1C(F)(F)F
SF-295 CNS
  GI50: 19.7 µM
  TGI: > 100 µM
DU-145 prostate
  GI50: 71.9 µM
  TGI: > 100 µM
NCI-H23 lung
  GI50: 29.1 µM
  TGI: > 100 µM
UACC-257 melanoma
  GI50: 22.7 µM
  TGI: > 100 µM
TK-10 renal
  GI50: 37.5 µM
  TGI: > 100 µM
MOLT-4 leukemia
  GI50: 23 µM
  TGI: 73.7 µM
BT-549 breast
  GI50: 31.5 µM
  TGI: > 100 µM
SW-620 colon
  GI50: 47.5 µM
  TGI: > 100 µM
SK-MEL-28 melanoma
  GI50: 58.8 µM
  TGI: > 100 µM
CCRF-CEM leukemia
  GI50: 27 µM
  TGI: > 100 µM

## O=C(CCCCCCSc1nc(-c2ccc(Cl)cc2)cc(-c2ccc(Cl)cc2)n1)NO
SF-295 CNS
  GI50: 2.34 µM
  TGI: 9.84 µM
DU-145 prostate
  GI50: 1.46 µM
  TGI: 4.9 µM
NCI-H23 lung
  GI50: 1.32 µM
  TGI: 4.33 µM
UACC-257 melanoma
  GI50: 2.15 µM
  TGI: > 50 µM
TK-10 renal
  GI50: 1.61 µM
  TGI: 11.9 µM
MOLT-4 leukemia
  GI50: 1.5 µM
  TGI: > 50 µM
BT-549 breast
  GI50: 1.92 µM
  TGI: 36.2 µM
SW-620 colon
  GI50: 1.71 µM
  TGI: 24.2 µM
SK-MEL-28 melanoma
  GI50: 2.04 µM
  TGI: > 50 µM
CCRF-CEM leukemia
  GI50: 1.25 µM
  TGI: > 50 µM

## O=C(NCCCCCCCCNC(=O)c1cccc2ccccc12)c1cccc2ccccc12
SF-295 CNS
  TGI: > 56.1 µM
DU-145 prostate
  TGI: > 100 µM
NCI-H23 lung
  TGI: > 79.6 µM
UACC-257 melanoma
  TGI: > 100 µM
TK-10 renal
  TGI: 43.3 µM
MOLT-4 leukemia
  TGI: > 100 µM
BT-549 breast
  TGI: > 100 µM
SW-620 colon
  TGI: > 100 µM
SK-MEL-28 melanoma
  TGI: > 94.4 µM
CCRF-CEM leukemia
  TGI: > 100 µM

## CCCCn1sc(=O)n(Cc2ccc(CNC(=O)OCc3ccc4c(Br)cc(Br)c(O)c4n3)cc2)c1=O
SF-295 CNS
  GI50: 4.09 µM
  TGI: > 24.5 µM
DU-145 prostate
  GI50: 0.4 µM
NCI-H23 lung
  GI50: 0.7 µM
  TGI: > 100 µM
UACC-257 melanoma
  GI50: > 100 µM
  TGI: > 100 µM
TK-10 renal
  GI50: > 51.5 µM
  TGI: > 100 µM
MOLT-4 leukemia
  GI50: 0.895 µM
  TGI: > 100 µM
BT-549 breast
  GI50: 0.406 µM
  TGI: > 100 µM
SW-620 colon
  GI50: 0.42 µM
  TGI: > 100 µM
SK-MEL-28 melanoma
  TGI: > 100 µM
CCRF-CEM leukemia
  GI50: 0.353 µM
  TGI: > 100 µM

## CCCSC1=NC2C(N(CC)C(=O)N2CC)N1/N=C/C=C/c1ccccc1[N+](=O)[O-] (configuration not stated)
SF-295 CNS
  GI50: 2.74 µM
  TGI: > 100 µM
DU-145 prostate
  GI50: 3.51 µM
  TGI: > 100 µM
NCI-H23 lung
  GI50: 4.04 µM
  TGI: > 100 µM
UACC-257 melanoma
  GI50: 11 µM
  TGI: > 100 µM
TK-10 renal
  GI50: 10 µM
  TGI: > 100 µM
MOLT-4 leukemia
  GI50: 3.36 µM
  TGI: > 100 µM
BT-549 breast
  GI50: 2.6 µM
  TGI: 8.5 µM
SW-620 colon
  GI50: 4.25 µM
  TGI: > 100 µM
SK-MEL-28 melanoma
  GI50: 6.96 µM
  TGI: > 100 µM
CCRF-CEM leukemia
  GI50: 2.93 µM
  TGI: > 100 µM

## Cc1cc(C)nc(SC2=C(Nc3cccc(Cl)c3C)C(=O)N(Cc3ccccc3)C2=O)n1
SF-295 CNS
  GI50: > 160 µM
  TGI: > 160 µM
DU-145 prostate
  GI50: > 160 µM
  TGI: > 160 µM
NCI-H23 lung
  GI50: > 160 µM
  TGI: > 160 µM
UACC-257 melanoma
  GI50: > 160 µM
  TGI: > 160 µM
TK-10 renal
  GI50: > 160 µM
  TGI: > 160 µM
MOLT-4 leukemia
  GI50: > 160 µM
  TGI: > 160 µM
BT-549 breast
  GI50: > 160 µM
  TGI: > 160 µM
SW-620 colon
  GI50: > 160 µM
  TGI: > 160 µM
SK-MEL-28 melanoma
  GI50: > 160 µM
  TGI: > 160 µM
CCRF-CEM leukemia
  GI50: > 160 µM
  TGI: > 160 µM

## Cn1c(=S)c2[nH]c(SCCN3CCCC3)nc2n(C)c1=O
SF-295 CNS
  TGI: > 100 µM
DU-145 prostate
  TGI: > 100 µM
NCI-H23 lung
  TGI: > 100 µM
UACC-257 melanoma
  TGI: > 100 µM
TK-10 renal
  TGI: > 100 µM
MOLT-4 leukemia
  TGI: > 100 µM
BT-549 breast
  TGI: > 100 µM
SW-620 colon
  TGI: > 100 µM
SK-MEL-28 melanoma
  TGI: > 100 µM
CCRF-CEM leukemia
  TGI: > 100 µM

## C#CCOc1cccc(Nc2ncnc3ccc(NC(=O)CCl)cc23)c1
SF-295 CNS
  GI50: 2.29 µM
  TGI: 19.8 µM
DU-145 prostate
  GI50: 0.73 µM
  TGI: 14.1 µM
NCI-H23 lung
  GI50: 2.87 µM
  TGI: 29.9 µM
UACC-257 melanoma
  GI50: 7.49 µM
  TGI: 26 µM
TK-10 renal
  GI50: 2.06 µM
  TGI: 18.1 µM
MOLT-4 leukemia
  GI50: 0.0864 µM
  TGI: > 89.5 µM
BT-549 breast
  GI50: 1.66 µM
  TGI: 10.1 µM
SW-620 colon
  GI50: 0.0614 µM
  TGI: 5.88 µM
SK-MEL-28 melanoma
  GI50: 5.15 µM
  TGI: 27 µM
CCRF-CEM leukemia
  GI50: 0.0725 µM
  TGI: > 33.6 µM

## O=C1/C(=C/c2ccccc2)CN(C(=O)OCc2ccccc2)C/C1=C\c1ccccc1
SF-295 CNS
  GI50: 3.63 µM
  TGI: 26.7 µM
DU-145 prostate
  TGI: > 100 µM
NCI-H23 lung
  TGI: 32.6 µM
UACC-257 melanoma
  GI50: 9.19 µM
  TGI: 28.3 µM
TK-10 renal
  TGI: > 46.2 µM
MOLT-4 leukemia
  GI50: 2.18 µM
  TGI: 7.49 µM and 19 µM
BT-549 breast
  TGI: 33.2 µM
SW-620 colon
  GI50: 1.44 µM
  TGI: 3.72 µM and 15.5 µM
SK-MEL-28 melanoma
  TGI: 32.8 µM
CCRF-CEM leukemia
  TGI: 8.4 µM and 8.56 µM
